The values below come from patent EP4810052A2, “HCRHR2 SELECTIVE POLYPEPTIDES” (Gubra A/S, priority 2023, dated 2026).

SMILES strings stand for the structures. Like-named read-outs stand apart in the source and are kept apart here. Starred links: 1 amine or outer side, 2 acyl side, 3 side chain; linkers in the order of their positions; H or OH if unused. Non-standard residues stand in square brackets, D forms with d. Residues, ends and D or L forms follow the SMILES beside them. Groups on a side chain read outwards from the residue. *: point of attachment. C20 diacid = O=C(O)CCCCCCCCCCCCCCCCCCC(=O)*; γGlu = O=C(O)[C@H](CCC(=O)[*:2])N[*:1]; NMeI = CC[C@H](C)[C@H](NC)C(=O)O; Nle = CCCC[C@H](N)C(=O)O; AEEA = NCCOCCOCC(=O)O; Aib = CC(C)(N)C(=O)O

One assay concerns the target T1, hCRHR2 (Homo sapiens, UniProt Q13324).
T1 sequence (Q13324 1-411): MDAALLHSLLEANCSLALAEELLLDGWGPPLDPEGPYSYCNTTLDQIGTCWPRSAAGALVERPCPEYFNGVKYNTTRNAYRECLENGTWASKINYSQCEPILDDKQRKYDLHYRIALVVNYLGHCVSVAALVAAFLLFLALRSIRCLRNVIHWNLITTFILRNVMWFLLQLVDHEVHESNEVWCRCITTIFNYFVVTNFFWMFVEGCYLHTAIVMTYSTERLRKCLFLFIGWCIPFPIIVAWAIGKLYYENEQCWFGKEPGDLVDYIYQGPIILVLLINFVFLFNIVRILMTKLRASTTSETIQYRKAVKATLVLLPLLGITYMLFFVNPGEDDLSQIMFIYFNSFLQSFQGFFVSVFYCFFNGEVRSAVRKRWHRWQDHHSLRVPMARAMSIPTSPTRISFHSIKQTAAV
Description: HTRF cAMP assay, determination of hCRHR2 potency (peptide libraries 5 conc., purified peptides 11 conc.). Format: cell-based. In outline:
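Frozen stocks of hCRHR2-expressing CHO-K1 cells, thawed just before testing, received peptide agonists in suspension; cAMP quantified by competitive HTRF immunoassay, with curves fitted by nonlinear regression (variable slope) for EC50.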
(In general: In TR-FRET formats the signal depends on donor and acceptor labels being close together.)

A further assay has as its target T2, hCRHR1 (Homo sapiens, UniProt P34998).
T2 sequence (P34998 24-415): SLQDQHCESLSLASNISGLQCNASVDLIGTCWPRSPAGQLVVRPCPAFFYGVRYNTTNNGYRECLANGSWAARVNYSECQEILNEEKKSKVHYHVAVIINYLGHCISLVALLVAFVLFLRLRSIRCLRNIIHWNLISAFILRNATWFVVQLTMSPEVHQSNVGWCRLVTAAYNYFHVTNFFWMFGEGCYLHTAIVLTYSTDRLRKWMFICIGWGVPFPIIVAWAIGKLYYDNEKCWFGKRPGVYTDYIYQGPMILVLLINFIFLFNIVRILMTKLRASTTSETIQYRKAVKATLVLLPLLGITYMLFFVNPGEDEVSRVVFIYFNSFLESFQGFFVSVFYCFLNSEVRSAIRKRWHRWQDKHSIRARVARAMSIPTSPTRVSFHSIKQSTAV
The assay can be described thus: HTRF cAMP assay, determination of hCRHR1 potency (peptide libraries 5 conc., purified peptides 11 conc.). The format is cell-based. In short, it runs like this:
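Cellular cAMP was read by time-resolved FRET between d2-labelled cAMP and cryptate anti-cAMP antibody. The cells were freshly thawed suspension CHO-K1 cells stably expressing human CRHR1.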

The mark [1] stands for this setting: Table 4, library peptides having X^38 = Nle, read-out: hCRHR2 pEC50 (converted).
[2] abbreviates: Table 4, library peptides having X^38 = Nle, read-out: hCRHR1 pEC50 (converted).
Setting [3] is: library peptides, matched molecular pairs L vs Nle in position X^38, read-out: Potency hCRHR2 pEC50 (converted).
The mark [4] stands for this setting: library peptides, matched molecular pairs L vs Nle in position X^38, read-out: Potency hCRHR1 pEC50 (converted).

For `CC[C@H](C)[C@H](N)C(=O)N[C@H](C(=O)N[C@@H](CC(C)C)C(=O)N[C@@H](CO)C(=O)N[C@@H](CC(C)C)C(=O)N[C@@H](CC(=O)O)C(=O)N[C@H](C(=O)N1CCC[C@H]1C(=O)N[C@H](C(=O)NCC(=O)N[C@@H](CC(C)C)C(=O)N[C@@H](CC(C)C)C(=O)N[C@@H](CCC(N)=O)C(=O)N[C@H](C(=O)N[C@@H](CC(C)C)C(=O)N[C@@H](CC(C)C)C(=O)N[C@@H](CCC(=O)O)C(=O)N[C@@H](CCC(N)=O)C(=O)N[C@@H](C)C(=O)N[C@@H](CCCNC(=N)N)C(=O)N[C@@H](C)C(=O)N[C@@H](CCCNC(=N)N)C(=O)N[C@@H](C)C(=O)N[C@@H](CC(C)C)C(=O)N[C@@H](CCCNC(=N)N)C(=O)N[C@@H](CCC(=O)O)C(=O)N[C@@H](CCC(N)=O)C(=O)N[C@@H](C)C(=O)N[C@@H](CCCCNC(=O)COCCOCCNC(=O)COCCOCCNC(=O)CC[C@H](NC(=O)CC[C@H](NC(=O)CCCCCCCCCCCCCCCCCCC(=O)O)C(=O)O)C(=O)O)C(=O)N[C@H](C(=O)N[C@@H](CC(N)=O)C(=O)N[C@@H](C)C(=O)N[C@@H](CCC(=O)O)C(=O)N[C@H](C(=O)N[C@@H](CC(C)C)C(=O)N[C@@H](C)C(=O)N[C@@H](CCC(=O)O)C(=O)N[C@H](C(N)=O)C(C)C)[C@@H](C)CC)[C@@H](C)O)[C@@H](C)CC)[C@@H](C)CC)C(C)C)C(C)C` [SEQ ID NO: 39] (H-IVLSLDVPIGLLQILLEQARARALREQAK([AEEA-AEEA-γGlu-γGlu-C20 diacid])TNAEILAEV-NH2), the EC50 on hCRHR2 (Table 3, matched molecular pairs X^38 L vs Nle, peptide library of Example 4, read-out: hCRHR2 pEC50 (converted)) was 0.501 nM; on hCRHR1 (Table 3, matched molecular pairs X^38 L vs Nle, peptide library of Example 4, read-out: hCRHR1 pEC50 (converted)), 794 nM.
Take `CCCC[C@H](NC(=O)[C@@H](NC(=O)[C@H](CCC(=O)O)NC(=O)[C@H](C)NC(=O)[C@H](CC(N)=O)NC(=O)C(C)(C)NC(=O)[C@H](CCCCNC(=O)COCCOCCNC(=O)COCCOCCNC(=O)CC[C@H](NC(=O)CC[C@H](NC(=O)CCCCCCCCCCCCCCCCCCC(=O)O)C(=O)O)C(=O)O)NC(=O)[C@H](C)NC(=O)[C@H](CCC(N)=O)NC(=O)[C@H](CCC(=O)O)NC(=O)[C@H](CCCNC(=N)N)NC(=O)[C@H](C)NC(=O)[C@H](C)NC(=O)[C@H](CCCNC(=N)N)NC(=O)[C@H](C)NC(=O)[C@H](CCCNC(=N)N)NC(=O)[C@H](C)NC(=O)[C@H](CCC(N)=O)NC(=O)[C@@H](NC(=O)[C@H](CC(C)C)NC(=O)[C@H](CC(C)C)NC(=O)[C@@H](NC(=O)[C@H](CCC(N)=O)NC(=O)[C@H](CC(C)C)NC(=O)[C@H](CC(C)C)NC(=O)CNC(=O)[C@@H](NC(=O)[C@@H]1CCCN1C(=O)[C@@H](NC(=O)[C@H](CC(=O)O)NC(=O)[C@H](CC(C)C)NC(=O)[C@H](CO)NC(=O)[C@H](CC(C)C)NC(=O)[C@@H](NC(=O)[C@@H](NC)[C@@H](C)CC)C(C)C)C(C)C)[C@@H](C)CC)[C@@H](C)CC)C(C)C)[C@@H](C)CC)C(=O)N[C@@H](C)C(=O)N[C@@H](CCC(=O)O)C(=O)N[C@H](C(N)=O)C(C)C` [compound 138] (H-[NMeI]VLSLDVPIGLLQILLVQARARAAREQAK([AEEA-AEEA-γGlu-γGlu-C20 diacid])[Aib]NAEI[Nle]AEV-NH2): the EC50 at hCRHR2 (setting [1]) is 0.0158 nM; at hCRHR1 (setting [2]), 1000 nM.
As for `CCCC[C@H](NC(=O)[C@@H](NC(=O)[C@H](CCC(=O)O)NC(=O)[C@H](C)NC(=O)[C@H](CC(N)=O)NC(=O)[C@@H](NC(=O)[C@H](CCCCNC(=O)COCCOCCNC(=O)COCCOCCNC(=O)CC[C@H](NC(=O)CC[C@H](NC(=O)CCCCCCCCCCCCCCCCCCC(=O)O)C(=O)O)C(=O)O)NC(=O)[C@H](C)NC(=O)[C@H](CCCNC(=N)N)NC(=O)[C@H](CCC(=O)O)NC(=O)[C@H](CCCNC(=N)N)NC(=O)[C@H](C)NC(=O)[C@H](C)NC(=O)[C@H](CCC(N)=O)NC(=O)[C@H](C)NC(=O)[C@H](CCCNC(=N)N)NC(=O)[C@H](C)NC(=O)[C@H](CCC(N)=O)NC(=O)[C@H](CCC(=O)O)NC(=O)[C@H](CC(C)C)NC(=O)[C@H](CC(C)C)NC(=O)[C@@H](NC(=O)[C@H](CCC(N)=O)NC(=O)[C@H](CC(C)C)NC(=O)[C@H](CC(C)C)NC(=O)CNC(=O)[C@@H](NC(=O)[C@@H]1CCCN1C(=O)[C@@H](NC(=O)[C@H](CC(=O)O)NC(=O)[C@H](CC(C)C)NC(=O)[C@H](CO)NC(=O)[C@H](CC(C)C)NC(=O)[C@@H](NC(=O)[C@@H](N)[C@@H](C)CC)C(C)C)C(C)C)[C@@H](C)CC)[C@@H](C)CC)[C@@H](C)O)[C@@H](C)CC)C(=O)N[C@@H](C)C(=O)N[C@@H](CCC(=O)O)C(=O)N[C@H](C(N)=O)C(C)C` [compound 49] (H-IVLSLDVPIGLLQILLEQARAQAARERAK([AEEA-AEEA-γGlu-γGlu-C20 diacid])TNAEI[Nle]AEV-NH2), the EC50 at hCRHR2 (setting [3]) is 0.126 nM; at hCRHR1 (setting [4]), 3160 nM.
Regarding `CCCC[C@H](NC(=O)[C@@H](NC(=O)[C@H](CCC(=O)O)NC(=O)C(C)(C)NC(=O)[C@H](CC(N)=O)NC(=O)[C@@H](NC(=O)[C@H](CCCCNC(=O)COCCOCCNC(=O)COCCOCCNC(=O)CC[C@H](NC(=O)CC[C@H](NC(=O)CCCCCCCCCCCCCCCCCCC(=O)O)C(=O)O)C(=O)O)NC(=O)[C@H](C)NC(=O)[C@H](CCC(N)=O)NC(=O)[C@H](CCC(=O)O)NC(=O)[C@H](CCCNC(=N)N)NC(=O)[C@H](C)NC(=O)[C@H](C)NC(=O)[C@H](CCCNC(=N)N)NC(=O)[C@H](C)NC(=O)[C@H](CCCNC(=N)N)NC(=O)[C@H](C)NC(=O)[C@H](CCC(N)=O)NC(=O)[C@H](C)NC(=O)[C@H](CC(C)C)NC(=O)[C@H](CC(C)C)NC(=O)[C@@H](NC(=O)[C@H](CCC(N)=O)NC(=O)[C@H](CC(C)C)NC(=O)[C@H](CC(C)C)NC(=O)CNC(=O)[C@@H](NC(=O)[C@@H]1CCCN1C(=O)[C@@H](NC(=O)[C@H](CC(=O)O)NC(=O)[C@H](CC(C)C)NC(=O)[C@H](CO)NC(=O)[C@H](CC(C)C)NC(=O)[C@@H](NC(=O)[C@@H](NC)[C@@H](C)CC)C(C)C)C(C)C)[C@@H](C)CC)[C@@H](C)CC)[C@@H](C)O)[C@@H](C)CC)C(=O)N[C@@H](C)C(=O)N[C@@H](CCC(=O)O)C(=O)N[C@H](C(N)=O)C(C)C` [compound 196] (H-[NMeI]VLSLDVPIGLLQILLAQARARAAREQAK([AEEA-AEEA-γGlu-γGlu-C20 diacid])TN[Aib]EI[Nle]AEV-NH2), the results for the EC50 at hCRHR2 (setting [1]) and at hCRHR1 (setting [2]) were 0.0316 nM and 1000 nM, respectively.
Regarding `CC[C@H](C)[C@H](N)C(=O)N[C@H](C(=O)N[C@@H](CC(C)C)C(=O)N[C@@H](CO)C(=O)N[C@@H](CC(C)C)C(=O)N[C@@H](CC(=O)O)C(=O)N[C@H](C(=O)N1CCC[C@H]1C(=O)N[C@H](C(=O)NCC(=O)N[C@@H](CC(C)C)C(=O)N[C@@H](CC(C)C)C(=O)N[C@@H](CCC(N)=O)C(=O)N[C@H](C(=O)N[C@@H](CC(C)C)C(=O)N[C@@H](CC(C)C)C(=O)N[C@@H](CCC(=O)O)C(=O)N[C@@H](CCC(N)=O)C(=O)N[C@@H](C)C(=O)N[C@@H](CCCNC(=N)N)C(=O)N[C@@H](C)C(=O)N[C@@H](CCCNC(=N)N)C(=O)N[C@@H](C)C(=O)N[C@@H](CC(C)C)C(=O)N[C@@H](CCCNC(=N)N)C(=O)N[C@@H](CCC(=O)O)C(=O)N[C@@H](CCC(=O)O)C(=O)N[C@@H](C)C(=O)N[C@@H](CCCCNC(=O)COCCOCCNC(=O)COCCOCCNC(=O)CC[C@H](NC(=O)CC[C@H](NC(=O)CCCCCCCCCCCCCCCCCCC(=O)O)C(=O)O)C(=O)O)C(=O)N[C@H](C(=O)N[C@@H](CC(N)=O)C(=O)N[C@@H](C)C(=O)N[C@@H](CCC(=O)O)C(=O)N[C@H](C(=O)N[C@@H](CC(C)C)C(=O)N[C@@H](C)C(=O)N[C@@H](CCC(=O)O)C(=O)N[C@H](C(N)=O)C(C)C)[C@@H](C)CC)[C@@H](C)O)[C@@H](C)CC)[C@@H](C)CC)C(C)C)C(C)C` [compound 50] (H-IVLSLDVPIGLLQILLEQARARALREEAK([AEEA-AEEA-γGlu-γGlu-C20 diacid])TNAEILAEV-NH2), the EC50 on hCRHR2 (setting [3]) was 2 nM; at hCRHR1 (setting [4]), 158000 nM.
